# Results as given in ChEMBL document CHEMBL2040771, “Discovery of a potent inhibitor of anaplastic lymphoma kinase with in vivo antitumor activity” (ACS Med Chem Lett, 2010).
# Activity calls are given as the source filed them. No cut-off for these calls is given here.
# What was measured:
# [1] = biological target: Mitogen-activated protein kinase 9 (Homo sapiens) (UniProt P45984); experiment: Inhibition of JNK2 at 0.1 uM
# [2] = biological target: Serine/threonine-protein kinase 32B (Homo sapiens) (UniProt Q9NY57); experiment: Inhibition of YANK2 at 1 uM
# [3] = biological target: Mitogen-activated protein kinase 8 (Homo sapiens) (UniProt P45983); experiment: Inhibition of JNK1 at 1 uM
# SUP-M2 = experiment: Antitumor activity against ALK-positive human SUP-M2 cells xenografted in po dosed SCID mouse bid after 12 days; assay type: functional, organism-based
# [4] = biological target: Dual specificity mitogen-activated protein kinase kinase 1 (Homo sapiens) (UniProt Q02750); experiment: Inhibition of MEK1 at 1 uM
# [5] = biological target: Serine/threonine-protein kinase 33 (Homo sapiens) (UniProt Q9BYT3); experiment: Inhibition of STK33 at 1 uM
# Mus musculus [6] = experiment: Clearance with respect to hepatic blood flow in SCID mouse at 1 mg/kg, iv; assay type: ADME, organism-based, Liver; design: dose 1 mg/kg, route intravenous; settings: in vivo
# [7] = biological target: Dual specificity mitogen-activated protein kinase kinase 4 (Homo sapiens) (UniProt P45985); experiment: Inhibition of MEK4 at 1 uM
# [8] = biological target: Macrophage colony-stimulating factor 1 receptor (Homo sapiens) (UniProt P07333); experiment: Inhibition of CSF1R at 1 uM
# [9] = biological target: Macrophage colony-stimulating factor 1 receptor (Homo sapiens) (UniProt P07333); experiment: Inhibition of CSF1R at 0.1 uM
# [10] = biological target: Epidermal growth factor receptor (Homo sapiens) (UniProt P04626+P00533+Q15303+P21860); experiment: Inhibition of EGFR L747 to E749 deletion, A750P mutant at 0.1 uM; assay type: protein assay
# [11] = test system: Receptor-type tyrosine-protein kinase FLT3 (Homo sapiens), P36888 [D835Y]; experiment: Inhibition of FLT3 D835Y mutant at 0.1 uM
# [12] = AUC in Sprague-Dawley rat at 5 mg/kg, po; assay type: ADME, organism-based; design: dose 5 mg/kg, route oral; settings: plasma
# [13] = AUC in beagle dog at 1 mg/kg, iv; assay type: ADME, organism-based, Canis lupus familiaris; design: dose 1 mg/kg, route intravenous; settings: plasma
# [14] = biological target: Serine/threonine-protein kinase PAK 3 (Homo sapiens) (UniProt O75914); experiment: Inhibition of PAK3 at 0.1 uM
# Rattus norvegicus = experiment: Clearance with respect to hepatic blood flow in Sprague-Dawley rat at 1 mg/kg, iv; assay type: ADME, organism-based, Liver; design: dose 1 mg/kg, route intravenous; settings: in vivo
# [15] = test system: Receptor-type tyrosine-protein kinase FLT3 (Homo sapiens), P36888 [N841I]; experiment: Inhibition of FLT3 N841I mutant at 1 uM
# [16] = biological target: Protein-tyrosine kinase 6 (Homo sapiens) (UniProt Q13882); experiment: Inhibition of BRK at 1 uM
# [17] = Plasma clearance in SCID mouse at 1 mg/kg, iv by LC/MS/MS analysis; assay type: ADME, organism-based; design: dose 1 mg/kg, route intravenous
# K562 = experiment: Growth inhibition of ALK-negative human K562 cells up to 1 uM by MTS assay; assay type: functional, cell-based
# [18] = Plasma concentration in SCID mouse xenografted with ALK-positive human SUP-M2 cells at 10 mg/kg, po bid for 12 days; assay type: ADME, organism-based; design: dose 10 mg/kg, route oral
# [19] = biological target: Epidermal growth factor receptor (Homo sapiens) (UniProt P00533); experiment: Inhibition of EGFR at 1 uM
# [20] = biological target: Serine/threonine-protein kinase ULK3 (Homo sapiens) (UniProt Q6PHR2); experiment: Inhibition of ULK3 at 0.1 uM
# [21] = Oral bioavailability in Sprague-Dawley rat at 5 mg/kg; assay type: ADME, organism-based; settings: in vivo
# Mus musculus [22] = experiment: Toxicity in SCID mouse xenografted with human SUP-M2 cells assessed as weight loss at 10 mg/kg, po BID for 12 days; assay type: organism-based; design: dose 10 mg/kg, route oral; settings: in vivo, 288 h
# [23] = biological target: Serine/threonine-protein kinase 3 (Homo sapiens) (UniProt Q13188); experiment: Inhibition of MST2 at 0.1 uM
# [24] = biological target: Serine/threonine-protein kinase PLK4 (Homo sapiens) (UniProt O00444); experiment: Inhibition of PLK4 at 0.1 uM
# [25] = test system: Epidermal growth factor receptor (Homo sapiens), P00533 [L861Q]; experiment: Inhibition of EGFR L861Q mutant at 0.1 uM; assay type: protein assay
# [26] = test system: Mast/stem cell growth factor receptor Kit (Homo sapiens), P10721 [D816V]; experiment: Inhibition of KIT D816V mutant at 1 uM
# [27] = Plasma concentration in SCID mouse xenografted with ALK-positive human SUP-M2 cells at 55 mg/kg, po bid for 12 days; assay type: ADME, organism-based; design: dose 55 mg/kg, route oral
# [28] = Antitumor activity against ALK-positive human SUP-M2 cells xenografted in SCID mouse assessed as partial tumor regression at 30 mg/kg, po bid after 12 days; assay type: functional
# [29] = Tmax in Sprague-Dawley rat at 5 mg/kg, po; assay type: ADME, organism-based; design: dose 5 mg/kg, route oral; settings: in vivo
# Mus musculus [30] = experiment: Toxicity in SCID mouse xenografted with human SUP-M2 cells at 55 mg/kg, po BID for 12 days; assay type: organism-based; design: dose 55 mg/kg, route oral; settings: in vivo, 288 h
# [31] = test system: Receptor-type tyrosine-protein kinase FLT3 (Homo sapiens), P36888 [D835H]; experiment: Inhibition of FLT3 D835H mutant at 0.1 uM
# [32] = biological target: Platelet-derived growth factor receptor beta (Homo sapiens) (UniProt P09619); experiment: Inhibition of PDGFRB at 0.1 uM
# [33] = biological target: Tyrosine-protein kinase Srms (Homo sapiens) (UniProt Q9H3Y6); experiment: Inhibition of SRMS at 1 uM
# [34] = Plasma concentration in SCID mouse xenografted with ALK-positive human SUP-M2 cells at 30 mg/kg, po bid for 12 days; assay type: ADME, organism-based; design: dose 30 mg/kg, route oral
# [35] = Oral bioavailability in SCID mouse at 10 mg/kg; assay type: ADME, organism-based; settings: in vivo
# [36] = Drug uptake in tumor lysates in SCID mouse xenografted with ALK-positive human SUP-M2 cells at 10 mg/kg, po bid for 12 days; assay type: ADME, organism-based, Neoplasm; design: dose 10 mg/kg, route oral; settings: read-out: Drug uptake
# [37] = biological target: Leukocyte tyrosine kinase receptor (Homo sapiens) (UniProt P29376); experiment: Inhibition of LTK at 0.1 uM
# [38] = Volume of distribution in beagle dog at 1 mg/kg, iv; assay type: ADME, organism-based, Canis lupus familiaris; design: dose 1 mg/kg, route intravenous; settings: in vivo
# [39] = test system: Epidermal growth factor receptor (Homo sapiens), P04626+P00533+Q15303+P21860 [UNDEFINED MUTATION]; experiment: Inhibition of EGFR L747 to E749 deletion, A750P mutant at 1 uM; assay type: protein assay
# [40] = biological target: Fibroblast growth factor receptor 4 (Homo sapiens) (UniProt P22455); experiment: Inhibition of FGFR4 at 1 uM
# [41] = test system: Receptor-type tyrosine-protein kinase FLT3 (Homo sapiens), P36888 [D835H]; experiment: Inhibition of FLT3 D835H mutant at 1 uM
# [42] = test system: Epidermal growth factor receptor (Homo sapiens), P00533 [L858R]; experiment: Inhibition of EGFR L858R mutant at 0.1 uM; assay type: protein assay
# [43] = biological target: Mitogen-activated protein kinase 9 (Homo sapiens) (UniProt P45984); experiment: Inhibition of JNK2 at 1 uM
# [44] = biological target: Protein-tyrosine kinase 6 (Homo sapiens) (UniProt Q13882); experiment: Inhibition of BRK at 0.1 uM
# [45] = biological target: Cyclin-G-associated kinase (Homo sapiens) (UniProt O14976); experiment: Inhibition of GAK at 1 uM
# [46] = biological target: Mitogen-activated protein kinase kinase kinase 5 (Homo sapiens) (UniProt Q99683); experiment: Inhibition of ASK1 at 1 uM
# Chain of Protein-tyrosine kinase 6 (Homo sapiens) (Q13882 whole entry, looked up): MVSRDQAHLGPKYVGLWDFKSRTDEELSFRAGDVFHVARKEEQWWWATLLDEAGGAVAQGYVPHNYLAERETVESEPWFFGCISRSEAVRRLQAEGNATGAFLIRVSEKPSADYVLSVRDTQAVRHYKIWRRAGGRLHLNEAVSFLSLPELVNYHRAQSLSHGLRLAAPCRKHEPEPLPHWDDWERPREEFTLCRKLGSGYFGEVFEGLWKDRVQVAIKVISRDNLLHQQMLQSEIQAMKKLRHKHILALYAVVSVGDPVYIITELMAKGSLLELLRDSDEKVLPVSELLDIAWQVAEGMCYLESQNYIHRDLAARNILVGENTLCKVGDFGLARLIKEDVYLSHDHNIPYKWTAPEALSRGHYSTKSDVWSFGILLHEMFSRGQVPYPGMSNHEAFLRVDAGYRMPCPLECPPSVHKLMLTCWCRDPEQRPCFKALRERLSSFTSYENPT
# Chain of Mitogen-activated protein kinase 9 (Homo sapiens) (P45984 whole entry, looked up): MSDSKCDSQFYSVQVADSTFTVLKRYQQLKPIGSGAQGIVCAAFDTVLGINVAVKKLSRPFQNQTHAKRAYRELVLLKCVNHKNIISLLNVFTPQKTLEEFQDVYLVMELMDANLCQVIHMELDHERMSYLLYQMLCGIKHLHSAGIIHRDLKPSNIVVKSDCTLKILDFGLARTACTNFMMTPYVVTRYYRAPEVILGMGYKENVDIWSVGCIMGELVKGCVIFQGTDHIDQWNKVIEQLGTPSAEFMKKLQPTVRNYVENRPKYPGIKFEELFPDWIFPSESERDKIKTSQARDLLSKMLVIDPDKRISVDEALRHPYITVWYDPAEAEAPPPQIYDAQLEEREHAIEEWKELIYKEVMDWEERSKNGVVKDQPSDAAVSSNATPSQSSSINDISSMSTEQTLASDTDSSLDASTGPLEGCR
# Chain of Macrophage colony-stimulating factor 1 receptor (Homo sapiens) (P07333 whole entry): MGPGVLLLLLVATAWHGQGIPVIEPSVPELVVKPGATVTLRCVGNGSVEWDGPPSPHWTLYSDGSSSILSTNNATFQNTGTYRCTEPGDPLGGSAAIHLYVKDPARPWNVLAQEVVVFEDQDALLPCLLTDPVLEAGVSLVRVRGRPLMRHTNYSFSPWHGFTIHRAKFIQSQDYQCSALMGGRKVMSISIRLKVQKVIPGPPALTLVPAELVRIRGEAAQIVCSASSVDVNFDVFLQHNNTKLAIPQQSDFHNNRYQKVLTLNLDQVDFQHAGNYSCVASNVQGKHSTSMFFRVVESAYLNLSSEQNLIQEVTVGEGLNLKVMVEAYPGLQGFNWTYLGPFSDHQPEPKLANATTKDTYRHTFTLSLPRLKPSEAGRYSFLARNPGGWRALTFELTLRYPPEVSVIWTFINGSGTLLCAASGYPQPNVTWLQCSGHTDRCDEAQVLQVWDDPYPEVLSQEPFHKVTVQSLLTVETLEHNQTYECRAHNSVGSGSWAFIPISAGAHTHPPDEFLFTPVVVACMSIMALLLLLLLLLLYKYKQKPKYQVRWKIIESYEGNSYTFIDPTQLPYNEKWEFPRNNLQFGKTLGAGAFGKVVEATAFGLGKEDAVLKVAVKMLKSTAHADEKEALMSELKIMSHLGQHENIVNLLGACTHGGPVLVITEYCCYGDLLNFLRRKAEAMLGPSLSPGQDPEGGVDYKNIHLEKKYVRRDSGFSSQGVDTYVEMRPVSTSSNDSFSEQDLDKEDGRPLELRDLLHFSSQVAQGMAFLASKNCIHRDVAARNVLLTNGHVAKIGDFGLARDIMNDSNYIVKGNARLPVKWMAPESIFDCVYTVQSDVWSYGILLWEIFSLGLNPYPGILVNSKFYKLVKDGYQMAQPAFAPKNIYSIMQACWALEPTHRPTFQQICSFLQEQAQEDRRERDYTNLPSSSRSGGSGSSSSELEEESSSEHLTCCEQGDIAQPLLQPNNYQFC
# Chain of Fibroblast growth factor receptor 4 (Homo sapiens) (P22455 22-802 limits assumed): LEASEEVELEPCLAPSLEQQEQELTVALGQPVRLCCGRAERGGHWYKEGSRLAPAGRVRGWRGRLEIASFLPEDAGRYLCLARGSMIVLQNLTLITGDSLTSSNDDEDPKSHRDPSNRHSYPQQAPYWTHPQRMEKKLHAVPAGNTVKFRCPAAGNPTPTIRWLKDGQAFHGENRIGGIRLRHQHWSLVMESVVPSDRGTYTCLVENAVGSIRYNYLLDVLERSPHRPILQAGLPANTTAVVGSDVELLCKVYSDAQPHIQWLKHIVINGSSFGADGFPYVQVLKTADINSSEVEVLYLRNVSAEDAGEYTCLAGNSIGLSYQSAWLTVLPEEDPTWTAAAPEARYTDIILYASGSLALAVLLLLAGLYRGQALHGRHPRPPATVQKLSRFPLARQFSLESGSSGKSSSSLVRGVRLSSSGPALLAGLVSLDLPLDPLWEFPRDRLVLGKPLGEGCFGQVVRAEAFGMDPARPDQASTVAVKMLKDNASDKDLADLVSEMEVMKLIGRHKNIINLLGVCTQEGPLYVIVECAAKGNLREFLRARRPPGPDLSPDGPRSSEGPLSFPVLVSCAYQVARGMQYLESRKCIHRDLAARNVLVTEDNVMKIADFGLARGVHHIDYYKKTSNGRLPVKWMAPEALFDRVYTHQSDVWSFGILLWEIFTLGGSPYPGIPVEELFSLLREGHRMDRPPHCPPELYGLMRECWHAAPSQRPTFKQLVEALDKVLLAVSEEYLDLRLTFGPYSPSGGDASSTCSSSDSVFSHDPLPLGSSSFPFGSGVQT
# Chain of Platelet-derived growth factor receptor beta (Homo sapiens) (P09619 whole entry): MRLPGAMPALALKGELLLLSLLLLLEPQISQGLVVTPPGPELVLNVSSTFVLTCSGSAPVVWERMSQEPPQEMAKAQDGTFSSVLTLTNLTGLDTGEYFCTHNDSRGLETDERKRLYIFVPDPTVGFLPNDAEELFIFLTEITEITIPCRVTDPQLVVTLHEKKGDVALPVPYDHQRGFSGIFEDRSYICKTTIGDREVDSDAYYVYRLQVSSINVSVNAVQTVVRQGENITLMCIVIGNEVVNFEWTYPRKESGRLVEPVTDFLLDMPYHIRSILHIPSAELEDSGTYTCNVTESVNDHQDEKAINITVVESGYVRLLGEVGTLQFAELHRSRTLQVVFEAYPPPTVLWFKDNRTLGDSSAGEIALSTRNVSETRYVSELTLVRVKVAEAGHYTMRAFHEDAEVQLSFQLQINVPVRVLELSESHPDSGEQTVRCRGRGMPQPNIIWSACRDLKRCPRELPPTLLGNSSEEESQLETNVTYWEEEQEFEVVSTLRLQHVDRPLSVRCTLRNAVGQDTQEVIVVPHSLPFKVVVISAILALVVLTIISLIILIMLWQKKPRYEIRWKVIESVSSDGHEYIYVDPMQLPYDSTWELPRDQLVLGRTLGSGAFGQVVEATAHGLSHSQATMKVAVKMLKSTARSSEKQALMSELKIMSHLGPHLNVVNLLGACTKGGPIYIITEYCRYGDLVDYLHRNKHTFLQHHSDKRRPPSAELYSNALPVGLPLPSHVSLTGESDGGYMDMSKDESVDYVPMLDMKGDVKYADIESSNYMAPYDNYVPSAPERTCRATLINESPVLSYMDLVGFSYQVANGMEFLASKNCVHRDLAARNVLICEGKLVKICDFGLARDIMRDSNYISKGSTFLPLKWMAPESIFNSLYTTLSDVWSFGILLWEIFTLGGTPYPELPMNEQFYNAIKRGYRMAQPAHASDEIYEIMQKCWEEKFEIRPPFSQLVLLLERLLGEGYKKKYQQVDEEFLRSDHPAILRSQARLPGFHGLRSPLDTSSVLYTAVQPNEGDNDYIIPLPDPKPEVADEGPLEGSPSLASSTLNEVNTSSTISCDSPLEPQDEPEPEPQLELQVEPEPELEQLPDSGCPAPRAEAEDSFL
# Chain of Serine/threonine-protein kinase PLK4 (Homo sapiens) (O00444 whole entry): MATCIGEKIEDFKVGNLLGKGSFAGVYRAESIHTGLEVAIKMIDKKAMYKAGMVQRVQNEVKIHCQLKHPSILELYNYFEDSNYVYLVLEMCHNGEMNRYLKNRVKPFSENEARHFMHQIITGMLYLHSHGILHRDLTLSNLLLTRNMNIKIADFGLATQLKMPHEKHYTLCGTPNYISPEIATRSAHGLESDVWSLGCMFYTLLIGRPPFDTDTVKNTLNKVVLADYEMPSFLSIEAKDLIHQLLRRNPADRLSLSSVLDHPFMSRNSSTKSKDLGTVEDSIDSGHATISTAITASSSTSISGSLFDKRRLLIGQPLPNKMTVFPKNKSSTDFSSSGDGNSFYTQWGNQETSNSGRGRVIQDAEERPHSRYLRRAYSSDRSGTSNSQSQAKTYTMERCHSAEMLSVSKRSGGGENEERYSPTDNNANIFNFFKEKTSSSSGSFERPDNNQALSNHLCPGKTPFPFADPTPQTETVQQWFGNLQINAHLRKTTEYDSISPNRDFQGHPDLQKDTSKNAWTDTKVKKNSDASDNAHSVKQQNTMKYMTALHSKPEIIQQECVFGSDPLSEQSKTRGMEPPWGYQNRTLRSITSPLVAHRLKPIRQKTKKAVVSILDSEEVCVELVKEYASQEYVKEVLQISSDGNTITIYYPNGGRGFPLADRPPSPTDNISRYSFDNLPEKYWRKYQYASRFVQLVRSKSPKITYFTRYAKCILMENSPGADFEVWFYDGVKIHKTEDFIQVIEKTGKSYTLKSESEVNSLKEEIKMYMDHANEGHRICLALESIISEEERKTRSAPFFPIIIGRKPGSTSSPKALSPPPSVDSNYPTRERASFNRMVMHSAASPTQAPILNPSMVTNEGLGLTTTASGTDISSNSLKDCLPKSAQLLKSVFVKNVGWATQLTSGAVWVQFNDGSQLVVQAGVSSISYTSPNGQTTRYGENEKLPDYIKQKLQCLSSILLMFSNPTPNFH
structure (smiles),measurement,setting,value
CCN1C(=O)CCCc2c1ccc(Nc1ncc(Cl)c(N[C@H]3[C@@H](C(N)=O)[C@@H]4C=C[C@H]3C4)n1)c2OC,inhibition,[1],< 50%
same,inhibition,[2],92%
same,inhibition,[3],100%
same,Activity,SUP-M2,Dose-dependent effect
same,inhibition,[4],91%
same,inhibition,[5],99%
same,CL,Mus musculus [6],41%
same,inhibition,[7],90%
same,inhibition,[8],91%
same,inhibition,[9],< 50%
same,inhibition,[10],< 50%
same,inhibition,[11],90%
same,AUC,[12],4090 ng·h/mL
same,AUC,[13],773 ng·h/mL
same,inhibition,[14],< 50%
same,CL,Rattus norvegicus,20%
same,inhibition,[15],95%
same,inhibition,[16],100%
same,clearance,[17],37 mL/min/kg
same,growth inhibition (GI),K562,inactive
same,concentration at 288 h,[18],337 ng/mL
same,inhibition,[19],96%
same,inhibition,[20],< 50%
same,bioavailability,[21],64%
same,Activity,Mus musculus [22],Non-toxic
same,inhibition,[23],< 50%
same,inhibition,[24],95%
same,inhibition,[25],< 50%
same,inhibition,[26],99%
same,concentration at 288 h,[27],3700 ng/mL
same,Activity,[28],100%
same,Tmax,[29],48 min
same,Activity,Mus musculus [30],Non-toxic
same,inhibition,[31],85%
same,inhibition,[32],66%
same,inhibition,[33],94%
same,concentration at 288 h,[34],1500 ng/mL
same,bioavailability,[35],32%
same,concentration at 288 h,[36],3560 ng/g
same,inhibition,[37],96%
same,Vd,[38],2.1 L/kg
same,inhibition,[39],94%
same,inhibition,[40],98%
same,inhibition,[41],95%
same,inhibition,[42],< 50%
same,inhibition,[43],92%
same,inhibition,[44],88%
same,inhibition,[45],91%
same,inhibition,[46],99%
